One test concerns the target T1, TMEM16A (acd) (Homo sapiens, UniProt Q5XXA6).
T1 sequence (Q5XXA6 1-986): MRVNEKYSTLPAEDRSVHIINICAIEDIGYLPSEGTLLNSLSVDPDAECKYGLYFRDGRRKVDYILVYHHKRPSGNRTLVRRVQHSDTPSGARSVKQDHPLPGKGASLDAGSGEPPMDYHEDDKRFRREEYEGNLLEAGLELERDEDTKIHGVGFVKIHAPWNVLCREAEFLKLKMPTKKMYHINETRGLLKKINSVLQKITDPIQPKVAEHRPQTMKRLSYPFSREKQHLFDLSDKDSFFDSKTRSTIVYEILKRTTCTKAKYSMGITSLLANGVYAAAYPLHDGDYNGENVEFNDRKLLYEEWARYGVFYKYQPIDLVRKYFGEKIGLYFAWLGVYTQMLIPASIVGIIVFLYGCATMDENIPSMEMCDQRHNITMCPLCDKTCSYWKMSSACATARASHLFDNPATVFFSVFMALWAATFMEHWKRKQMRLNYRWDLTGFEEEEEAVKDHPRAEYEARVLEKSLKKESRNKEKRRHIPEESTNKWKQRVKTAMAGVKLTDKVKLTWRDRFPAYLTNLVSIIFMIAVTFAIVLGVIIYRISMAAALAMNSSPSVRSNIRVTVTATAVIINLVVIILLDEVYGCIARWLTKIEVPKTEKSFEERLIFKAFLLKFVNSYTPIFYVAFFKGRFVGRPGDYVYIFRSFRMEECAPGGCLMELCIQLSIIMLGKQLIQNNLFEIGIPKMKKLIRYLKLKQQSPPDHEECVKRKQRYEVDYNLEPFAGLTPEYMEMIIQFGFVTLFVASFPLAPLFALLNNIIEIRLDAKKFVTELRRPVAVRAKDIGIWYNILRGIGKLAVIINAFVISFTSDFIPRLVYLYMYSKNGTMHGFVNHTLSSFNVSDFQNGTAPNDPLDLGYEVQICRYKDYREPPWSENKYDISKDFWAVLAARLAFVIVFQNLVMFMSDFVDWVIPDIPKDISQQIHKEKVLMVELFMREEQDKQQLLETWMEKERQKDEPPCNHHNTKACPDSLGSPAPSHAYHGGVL
The test can be described thus: QPatch whole-cell electrophysiology, HEK293 TMEM16A (acd). To be noted: supplement; 170 nM free intracellular calcium; read-out: IC50 for blocking the TMEM16A outward current, QPatch. The class given is cell-based. The source says: HEK293 cells stably expressing the TMEM16A (acd) variant were purchased from SB Drug Discovery. The HEK293 TMEM16A (abc) stable cell line was from ChanTest and COLO-205 cells were purchased from ATCC. The same standard buffers and recording conditions listed below were used for QPatch studies on all three cell lines.
Recording Solutions: were made weekly as below and stored at room temperature until used. It is recommended not to add ATP to internal solution until immediately before using on the QPatch. The external buffer (in mM) was 140 NaCl, 4 KCl, 2 CaCl2, 1 MgCl2, 10 HEPES, 10 Glucose, pH7.4, while the internal buffer (in mM) was 110 CsCl, 20 TEA-Cl, 5.374 CaCl2, 1.75 MgCl2, 10 EGTA, 10 HEPES, 4 Na2ATP, pH 7.2.
Once established in whole-cell configuration, cells were clamped to a holding potential (Vhold) of 0 mV on 48 well single hole patch plate. A standardized IV protocol was used to elicit ionic current through the TMEM16A chloride channel at 20 s intervals. Steady-state voltage pulses were from −100 mV to +100 mV in +20 mV steps for a duration of 500 ms. After each pulse the voltage was returned to −100 mV for 50 ms to obtain tail currents, and then returned to the holding potential of 0 mV until the beginning of the next sweep. […] This ensures a minimum of 60 s per concentration incubation before measuring current block. Currents were acquired at 10 kHz and filtered at 2 kHz, leak subtraction and Rseries were disabled. A 1 MΩ minimum resistance was set because cells are held in an open channel state and therefore resistance is low.
A cumulative concentration response was measured where each cell is exposed to five concentrations of test article with a dilution factor of 1:5 (e.g., 0.048, 0.24, 1.2, 6, and 30 μM). Cells were recorded for ∼60 s per solution/compound addition. Initially, external solution is applied twice to allow currents to stabilize. Then vehicle (from the saline reservoir) is added twice to monitor any effect 0.3% DMSO might have on currents. This leads directly into the concentration runs by applying Concentration 1 (single addition) for 1 min. Concentration 2 is then applied for the subsequent minute, etc. Recovery/washout was monitored for a final minute with a final external solution addition.
[…] […] Each cell’s current magnitude was then normalized to itself at the initial 0.3% vehicle control period prior to compound application. This step is to account for differences in current size for each cell. Normalized responses to test article were plotted against their concentrations to reveal a concentration-inhibition plot.
A Normalized Group Hill fit was then performed on the plotted results to yield a pooled IC50 value, reconstructed from a minimum of two cells/concentration. The baseline response as well as the full response were constrained to 1 and 0, respectively.
On the technique in general: The patch-clamp technique gives a direct electrical read-out from membranes.

Test [1] deals with Wnt/β-catenin transcription. The test is described as follows: Wnt/β-catenin transcription TOPFlash reporter assay. The class given is cell-based. Conditions: Wnt TopFlash IC50 over TMEM16A eYFP IC50. (In general: A reporter such as luciferase makes a cellular process visible.)
The test system of test [2] is Wnt/β-catenin transcription. Conditions: ref Mook et al. (2015); read-out: Mook et al. Wnt/β-catenin TopFlash (IC50); cited from earlier work.
In a further test the target is T2, hTMEM16A (abc) (Homo sapiens, UniProt Q5XXA6, DEL476-501).
T2 sequence (Q5XXA6 with tags, fused parts or gaps isoform Q5XXA6-5 DEL539-564): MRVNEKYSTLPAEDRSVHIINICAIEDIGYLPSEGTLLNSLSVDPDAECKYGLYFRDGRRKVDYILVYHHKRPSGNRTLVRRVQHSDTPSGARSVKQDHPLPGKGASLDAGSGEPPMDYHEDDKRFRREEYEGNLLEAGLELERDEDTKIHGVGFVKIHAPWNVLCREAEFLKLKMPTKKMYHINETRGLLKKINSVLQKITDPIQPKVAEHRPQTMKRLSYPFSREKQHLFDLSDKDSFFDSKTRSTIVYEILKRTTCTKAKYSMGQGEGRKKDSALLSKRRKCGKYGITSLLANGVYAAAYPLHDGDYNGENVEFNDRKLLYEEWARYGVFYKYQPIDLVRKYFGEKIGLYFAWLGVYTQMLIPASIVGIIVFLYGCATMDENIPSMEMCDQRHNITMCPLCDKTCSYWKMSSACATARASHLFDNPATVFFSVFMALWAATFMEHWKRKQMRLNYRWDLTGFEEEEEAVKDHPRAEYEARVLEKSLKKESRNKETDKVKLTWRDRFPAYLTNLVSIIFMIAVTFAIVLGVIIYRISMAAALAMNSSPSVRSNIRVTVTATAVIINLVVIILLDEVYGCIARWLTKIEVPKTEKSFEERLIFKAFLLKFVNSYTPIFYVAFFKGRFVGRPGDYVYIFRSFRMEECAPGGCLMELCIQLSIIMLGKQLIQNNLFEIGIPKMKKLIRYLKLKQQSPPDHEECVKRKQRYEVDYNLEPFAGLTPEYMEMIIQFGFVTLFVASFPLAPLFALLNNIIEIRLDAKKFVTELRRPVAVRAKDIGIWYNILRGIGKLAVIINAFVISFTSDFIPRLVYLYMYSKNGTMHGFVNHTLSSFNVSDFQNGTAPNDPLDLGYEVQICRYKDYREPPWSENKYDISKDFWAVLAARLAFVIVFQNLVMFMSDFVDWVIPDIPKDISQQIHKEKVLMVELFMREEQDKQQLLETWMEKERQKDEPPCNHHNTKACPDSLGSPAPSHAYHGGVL
The test is described as follows: medchem TMEM16A halide-sensitive YFP assay, 22-point dose-response. The test is classed as cell-based. Also on record: expressed in transfected cells. To be noted: supplement; iodide as permeant anion, maximum concentration 55.6; read-out: TMEM16A eYFP Assay IC50. Here is the method: The TMEM16A HEK293T eYFP (H149Q, I153L) stable cell line for medchem support was generated by transfecting 10 μg of linearized hTMEM16A(abc) DNA constructs into HEK293T eYFP (H149Q,I153L) stable cells. The transfected cells were cultured under 200 μg/ml of hygromycin B selection for 20 days and the stable pool was single cell seeded in 96 well plate and duplicated plate were made after single cell clones were formed. YFP function assay were performed on duplicated plate and clones producing higher changes in fluorescence from the YFP assay were chosen for further expansion to form a stable cell line.
Plates were incubated for 24 h at 37°C with 5% CO2. On the assay day, medium was removed and replaced with 20 μl/well of assay buffer (Hank’s Balanced Salt Solution with 10 mM HEPES pH 7.4), 10 μl/well of 40x diluted compounds was added to assay plate and it was incubated at room temperature for 30 min, after which baseline fluorescence was read in the FLIPR instrument for 10 s. Then, 5 μl/well of a 3x trigger solution (24 mM iodide, 3 μM ionomycin in assay buffer) was added and the fluorescence kinetic trace was recorded for 2 min.

A further test deals with human bronchial rings. The test is described as follows: Wire myograph bronchodilation of histamine pre-contracted human bronchial rings (Biopta). The source says: Details of bronchodilator studies shown in Figure 5H, 6 and Supplementary Figure 40 are provided below as part of the end assay report on Study CUR011 by Lee Christie (Biopta). Donors with any of the following conditions were excluded from the study: asthma, COPD, emphysema, lung cancer, cystic fibrosis, pulmonary fibrosis, pulmonary hypertension, pneumonia. Donors were also excluded if they had smoked in the past 12 months. Non-transplantable lung tissue was acquired from organ donors post mortem. Any macroscopically diseased/necrotic tissue was rejected. […] Human airway rings were set up under isometric conditions on a wire myograph in order to examine the influence of the test articles on bronchodilation. In order to assess tissue viability, the airways were challenged with carbachol (10 μM) and then isoprenaline (10 μM) to assess their constriction and relaxation responses, respectively. […] Viable airways were pre-constricted with histamine (10 μM), then exposed to one of the following cumulative concentration response curves (CCRCs): positive control, vehicle (water, volume matched to positive control), test article, vehicle (DMSO concentration matched to test articles). At the end of each CCRC, theophylline (2.2 mM) was added to induce maximal relaxation of the tissue. […] Airways were re-tensioned to 1.0 – 1.5 g if the tension had dropped below 1.0 g during the first 30 min of equilibration. (b) Airways were exposed to carbachol (bath concentration 10 μM) in order to measure their contractile responses and then isoprenaline (10 μM) in order to assess their relaxation. Airways were washed out and allowed to return to baseline. (c) Airways were pre-constricted with histamine (10 μM) before conducting a CCRC to the test article, the positive control (isoprenaline), test article vehicle or positive control vehicle.

The target in another test is T3, human CFTR (Homo sapiens, UniProt P13569).
T3 construct: host or cells: CHO
T3 sequence (P13569 whole entry): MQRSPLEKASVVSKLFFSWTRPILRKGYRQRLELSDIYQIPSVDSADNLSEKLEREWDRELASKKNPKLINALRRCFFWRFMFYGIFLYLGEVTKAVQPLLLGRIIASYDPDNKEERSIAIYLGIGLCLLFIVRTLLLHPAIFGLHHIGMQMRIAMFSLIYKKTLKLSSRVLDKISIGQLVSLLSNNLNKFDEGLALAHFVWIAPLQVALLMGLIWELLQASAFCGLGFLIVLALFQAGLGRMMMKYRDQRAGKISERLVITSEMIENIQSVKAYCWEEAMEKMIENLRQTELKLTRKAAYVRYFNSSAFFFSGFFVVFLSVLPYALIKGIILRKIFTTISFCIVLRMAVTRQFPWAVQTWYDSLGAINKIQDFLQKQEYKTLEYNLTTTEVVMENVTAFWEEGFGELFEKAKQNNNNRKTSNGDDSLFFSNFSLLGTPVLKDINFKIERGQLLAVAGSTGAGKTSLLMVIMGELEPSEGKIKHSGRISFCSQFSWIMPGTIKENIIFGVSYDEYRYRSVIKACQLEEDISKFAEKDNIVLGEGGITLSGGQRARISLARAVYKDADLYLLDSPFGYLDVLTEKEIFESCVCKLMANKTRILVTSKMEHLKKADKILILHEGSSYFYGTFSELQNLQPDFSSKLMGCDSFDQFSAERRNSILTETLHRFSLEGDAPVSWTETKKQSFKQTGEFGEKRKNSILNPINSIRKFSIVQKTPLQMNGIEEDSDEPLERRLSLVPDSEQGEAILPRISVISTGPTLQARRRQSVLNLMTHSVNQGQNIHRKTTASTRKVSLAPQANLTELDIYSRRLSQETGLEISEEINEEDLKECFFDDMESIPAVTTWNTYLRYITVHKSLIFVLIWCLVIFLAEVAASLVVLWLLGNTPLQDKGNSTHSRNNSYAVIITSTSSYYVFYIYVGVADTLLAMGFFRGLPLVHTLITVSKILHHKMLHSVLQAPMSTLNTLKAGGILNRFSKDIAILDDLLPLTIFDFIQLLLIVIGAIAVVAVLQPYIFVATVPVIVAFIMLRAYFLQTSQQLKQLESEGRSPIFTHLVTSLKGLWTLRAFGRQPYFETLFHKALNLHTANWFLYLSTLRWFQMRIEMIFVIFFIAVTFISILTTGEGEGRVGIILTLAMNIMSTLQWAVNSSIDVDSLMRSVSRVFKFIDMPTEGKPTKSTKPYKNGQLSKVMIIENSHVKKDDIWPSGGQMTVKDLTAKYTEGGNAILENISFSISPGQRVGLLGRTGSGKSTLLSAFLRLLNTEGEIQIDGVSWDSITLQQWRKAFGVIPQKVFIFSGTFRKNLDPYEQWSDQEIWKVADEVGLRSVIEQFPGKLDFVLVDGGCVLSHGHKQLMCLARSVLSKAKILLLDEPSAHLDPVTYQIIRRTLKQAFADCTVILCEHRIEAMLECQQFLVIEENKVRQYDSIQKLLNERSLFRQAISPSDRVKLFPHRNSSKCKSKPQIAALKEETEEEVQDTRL
The test is described as follows: IonWorks Barracuda electrophysiology, CFTR chloride current in CHO cells. Conditions: 10 µM compound, CHO CFTR. The class given is cell-based. The source says:
HEK293 cells stably expressing the human TMEM16A (abc) variant and CHO cells expressing the human CFTR gene were from ChanTest. The IonWorks Barracuda (IWB) procedure and data provided are from outsourced studies performed at ChanTest (Charles River Discovery, Cleveland, OH, United States) who were blinded as to the identity of the test articles or compounds provided by Amgen.
For measuring compound effects on CFTR chloride currents, compounds were serially diluted in HEPES-buffered physiological saline to 2X final concentration allowing for an 8-point dose-response analysis. Test article concentrations were applied to naïve cells (n = 4, where n = the number of replicate wells/concentration) via steel needles, where each application will consist of addition of 20 μl of 2X concentrated test article solution to a final 40 μl volume in the extracellular well of the Population Patch ClampTM (PPC) planar electrode. After mixing (three times), duration of exposure to compound is at least 5 min. Final solutions contain 0.3% DMSO. […] The current is measured using a pulse pattern consisting of a voltage step to +60 mV, 100 ms duration; voltage ramp from +60 to −120 mV, 1000 ms; step to −120 mV, 200 ms; and step to 0 mV, 200 ms; from holding potential, −30 mV. Current amplitudes were measured at the voltage step to 0 mV. The recording procedure was as follows: extracellular buffer is loaded into the PPC plate wells (11 μl per well). Cell suspension was pipetted into the wells (9 μl per well) of the PPC planar electrode. After establishment of a whole-cell configuration via amphotericin patch perforation similar to that described earlier, membrane currents were recorded using the patch clamp amplifier in the IonWorks^TM Barracuda system. Two recordings (scans) were then performed, one scan before and a second scan 5 min after test article (TA) application. […] Data acquisition and analyses were performed using the IonWorks Barracuda^TM system operation software (version 2.0.2). The decrease in current amplitude after test article application was used to calculate the percent block relative to control. […] Inhibition effect was calculated as: % Inhibition = (1 – ITA/IBaseline) × 100%, where IBaseline and ITA were the currents measured in control (before addition of a test article) and in the presence of a test article, respectively.

With `O=C(Nc1ccccc1C(=O)Nc1nnc(C(F)(F)F)s1)c1ccccc1Cl` [CID# 2806957], the IC50 at TMEM16A (acd) was 0.67 µM.

Turning to `O=C(Nc1ccccc1)c1cc(Cl)ccc1O` [Cpd 6], in test [1], the “IC50 Ratio, Wnt/TMEM16A” value is recorded as 11.36. In addition, the IC50 in test [2] is 11.8 µM; on hTMEM16A (abc), 1.04 µM.

On to `O=C(Nc1c(Cl)cccc1Cl)c1cc(Cl)ccc1O` [Cpd 15], for which the IC50 in test [2] is > 12 µM.

For `O=C(Nc1c(F)cccc1F)c1cc(Cl)ccc1O` [Cpd 18], the IC50 in test [2] was > 12 µM; on hTMEM16A (abc), 13.4 µM.

Turning to `CC(C)(C)NCC(O)c1ccc(O)c(CO)c1` (centres unmarked) [Salbutamol, salbutamol], the EC50 with human bronchial rings (Homo sapiens, 10 μM histamine, read-out: EC50 bronchodilating histamine precontracted human airways) stood at 0.119 µM. For the same molecule, the “time to open airways” value in the test on human bronchial rings (summary) is reported as < 7 min.

As for `NCCNCCNC(=O)c1cc2ccccc2cc1O` [compound 111758], the IC50 on hTMEM16A (abc) was found to be 0.091 ± 0.028 µM.

Take `CC1(C)C(O)C1C#Cc1ccccc1` (centres unmarked) [compound 598689]: the IC50 on hTMEM16A (abc) amounted to 0.466 ± 0.101 µM.

For the molecule `CCCn1c(SCC(=O)NCC(F)(F)F)nc2ccccc2c1=O` [compound 2100101], the IC50 on hTMEM16A (abc) stood at 3.33 µM.

For the molecule `Cc1ccc(-c2nnn(CC(=O)N(c3cccc(C(F)(F)F)c3)C(C(=O)NC(C)(C)C)c3cccs3)n2)cc1` (centres unmarked) [compound 3179204], the IC50 on hTMEM16A (abc) is 0.334 µM.

For CFTRinh-172, the “effect on CFTR chloride current” value on human CFTR was “fully inhibited”.

The EC50 is the midpoint of the concentration-response curve.

Values taken from paper PMC6382696, “Drug Repurposing: The Anthelmintics Niclosamide and Nitazoxanide Are Potent TMEM16A Antagonists That Fully Bronchodilate Airways” (Frontiers in Pharmacology, 2019).
